Source: PubChem BioAssay (NCI)
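In this assay, cells in 96-well plates receive the compound at five concentrations for 48 hours. Endpoints are linearly interpolated between the surrounding concentrations. At the TGI there is no net growth.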

Experiments:
Assay in all cases: NCI tumour cell line growth inhibition, 48 h
[1] = system: A498 renal
[2] = system: EKVX NSCLC
[3] = system: IGROV1 ovarian
[4] = system: MDA-N
[5] = system: NCI/ADR-RES ovarian
[6] = system: SF-295 CNS
[7] = system: SK-MEL-28 melanoma
[8] = system: SN12C renal
[9] = system: SNB-75 CNS
[10] = system: T-47D breast

Row | SMILES | TGI [1] [µM] | TGI [2] [µM] | TGI [3] [µM] | TGI [4] [µM] | TGI [5] [µM] | TGI [6] [µM] | TGI [7] [µM] | TGI [8] [µM] | TGI [9] [µM] | TGI [10] [µM]
1 | O=C(CCSC(CC(=O)c1ccc(Cl)cc1)c1ccc(Cl)cc1)Nc1ccc(Cl)cc1 (stereo not given) | 25.1 | 25.4 | 29.6 | 26 | 40.2 | 25.8 | 29.4 | 24.8 | 36.4 | 22.2
2 | COC(=O)OC[C@H]1O[C@@H](n2cc(C)c(=O)[nH]c2=O)CC1OC(=O)OC (stereo not given in full) | > 100 | > 100 | > 100 | > 100 | > 100 | > 100 | > 100 | > 100 | > 100 | > 100
3 | C1=C2SSC3=CC=C(SSc4ccc(s4)SSC4=CC=C(SSC(=C1)S2)S4)S3 | > 100 | > 100 | > 100 | > 100 | > 100 | > 100 | > 100 | > 100 | > 100 | > 100
4 | N/C(CC/C(N)=N\O)=N\O | > 100 | > 100 | > 100 | > 100 | > 100 | > 100 | > 100 | > 100 | > 100 | > 100
5 | O=S(=O)(O)c1cc(Cl)c(O)c2ncc(Cl)cc12 | > 100 | > 100 | > 100 | > 100 | > 100 | > 100 | > 100 | > 100 | > 100 | > 100
6 | CC1C(c2ccc(N(C)C)cc2)c2cc3c(cc2OC1N1CCCC1)OCO3 (stereo not given) | 72.3 | > 100 | > 100 | 46.9 | > 94.1 | > 94.8 | > 100 | > 100 | > 73 | > 100
7 | Fc1cccc(F)c1C1SCC2=Nc3ccccc3CN21 (stereo not given) | > 100 | > 100 | > 100 | > 100 | 79.5 | > 100 | > 100 | > 100 | 81.8 | > 100
8 | c1cc(-c2cscc2-c2ccsc2)cs1 | > 100 | > 100 | > 100 | > 100 | > 100 | > 100 | > 100 | > 100 | > 100 | > 100
9 | c1ccc(COc2ccc(C[P+](c3ccccc3)(c3ccccc3)c3ccccc3)cc2)cc1 | 5.51 | 3.04 | 12.3 | 5.86 | 49.1 | 2.97 | 5.04 | 5.03 | 2.99 | 0.839
10 | O=C(Cc1ccc(Cl)c(Cl)c1)NCCCN1CCN(CCCN2CCCCC2)CC1 | 31 | 39.3 | 75 | 6.31 | > 100 | 37.7 | 4.95 | 39 | 49.3 | 44.4
11 | Oc1c(OCc2nnc(CCCCCCCCc3nnc(COc4ccc5ccccc5c4O)n3Nc3ccccc3)n2Nc2ccccc2)ccc2ccccc12 | 34.3 | 31.6 | 31.5 | 12.8 | 42.6 | 13.9 | 14.3 | 29.2 | 35.5 | > 100
